# No end group written: not given here.
# Tests used:
# εPKC [1] = target: T1, εPKC (Rattus norvegicus, UniProt P09216); experiment: Effect of isoform-specific inhibitory peptides on PMA-induced PKC translocation, Western blot; type: cell-based; conditions: peptide introduced by permeabilization, 10 nM PMA for 10 minutes
# T1 construct: Western Blot of cardiac myocyte soluble and particulate fractions; endogenous in cells; host or cells: primary neonatal Sprague-Dawley rat ventricular myocytes
# T1 sequence (P09216 1-737): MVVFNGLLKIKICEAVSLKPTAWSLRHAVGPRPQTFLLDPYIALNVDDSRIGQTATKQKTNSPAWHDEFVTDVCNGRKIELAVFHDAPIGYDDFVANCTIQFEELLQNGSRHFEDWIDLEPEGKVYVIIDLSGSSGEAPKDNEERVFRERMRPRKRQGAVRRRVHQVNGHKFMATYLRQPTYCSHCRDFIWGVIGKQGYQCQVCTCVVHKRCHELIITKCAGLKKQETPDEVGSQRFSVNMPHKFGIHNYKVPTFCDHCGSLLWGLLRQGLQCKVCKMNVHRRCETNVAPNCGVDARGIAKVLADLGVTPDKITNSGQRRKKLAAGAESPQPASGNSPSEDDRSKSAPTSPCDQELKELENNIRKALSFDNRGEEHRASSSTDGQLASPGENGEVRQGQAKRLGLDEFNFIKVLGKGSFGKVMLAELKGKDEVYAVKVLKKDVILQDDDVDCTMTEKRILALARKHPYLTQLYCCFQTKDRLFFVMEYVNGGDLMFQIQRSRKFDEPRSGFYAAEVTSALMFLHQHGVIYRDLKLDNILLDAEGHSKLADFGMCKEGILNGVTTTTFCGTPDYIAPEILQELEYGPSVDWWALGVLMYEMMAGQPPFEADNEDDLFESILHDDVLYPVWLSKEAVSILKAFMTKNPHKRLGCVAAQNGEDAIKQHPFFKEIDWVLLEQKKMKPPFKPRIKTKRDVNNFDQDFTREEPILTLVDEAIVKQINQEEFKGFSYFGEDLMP
# Description: (§1) Briefly, ventricles from day-old Sprague-Dawley rats were minced, and single isolated myocytes were obtained by alternating cycles of room temperature trypsinization and mechanical dissociation. […] After 30 minutes nonattached cardiac myocytes were collected and replated at a density of 800 cells per mm^2 into 8-well glass chamber slides (Nunc, Naperville, Ill.) for cell viability assays and immunofluorescence staining, into 6-well plastic culture plates (Fisher Scientific, Pittsburgh, Pa.) for lactate dehydrogenase (LDH) assays, or into 100 mm glass culture dishes for Western blot analyses. […] Experiments were conducted on culture days 6-8.
# (§2) Following treatment, medium from one plate was removed, and cells were washed twice with ice-cold phosphate-buffered saline (PBS). 1.5 ml of chilled homogenization buffer consisting of 10 mM Tris-HCl pH 7.4, 1 mM EDTA, 1 mM EGTA, 0.25 M sucrose, and […] each of phenylmethylsulfonyl fluoride, soybean trypsin inhibitor, leupeptin, and aprotinin was added to each dish. Myocytes were scraped from the plates and triturated 3 times with a tuberculin syringe attached to a 22-gauge needle. […] Supernatants were concentrated to a volume of […] with a Centricon 30 filtration unit (Amicon, Beverly, Mass.).
# cardiac myocytes [2] = experiment: Protection of cardiac myocytes from 9 hours of hypoxia by peptides, cell viability assay; type: cell-based, rat; conditions: after 9 hours of hypoxia; peptide introduced by saponin permeabilization; average of two experiments
# Description: (§3) Primary cell cultures were prepared as previously described (Disatnik, et al., 1994). Briefly, ventricles from day-old Sprague-Dawley rats were minced, and single isolated myocytes were obtained by alternating cycles of room temperature trypsinization and mechanical dissociation. Cells were washed and preplated in medium 199 with Hanks' salt solution (Gibco/BRL Life Technologies, Gaithersburg, Md.) containing 10% fetal bovine serum (Hyclone Laboratories, Inc., Logan, Utah) to reduce the number of contaminating non-myocardial cells (NMCs). After 30 minutes nonattached cardiac myocytes were collected and replated at a density of 800 cells per mm^2 into 8-well glass chamber slides (Nunc, Naperville, Ill.) for cell viability assays and immunofluorescence staining, into 6-well plastic culture plates (Fisher Scientific, Pittsburgh, Pa.) for lactate dehydrogenase (LDH) assays, or into 100 mm glass culture dishes for Western blot analyses. […]
# (§4) Following treatment of cardiac myocytes grown on 8-well chamber slides, living and dead cells were distinguished using the "EUKOLIGHT" Viability/Cytotoxicity assay (Molecular Probes, Eugene, Oreg.). […] The number of viable (green fluorescent by calcine) and non-viable (red fluorescent by ethidium) cardiac myocytes present in 10-20 random microscopic fields per condition per experiment was recorded. […]
# εPKC [3] = target: T1, εPKC; experiment: Peptide-induced translocation of PKC in cardiac myocytes; type: cell-based; conditions: 10 μg/ml in permeabilization buffer
# Description: as §3
# Immunofluorescence staining of cardiac myocytes grown on 8-well glass chamber slides was carried out as previously described (Hauser, et al., 1993). […] Images were recorded on Kodak TMAX 400 film with exposure time of 1 second for all photomicrographs and were processed by an automated, commercial developer without additional adjustment. […]
# δPKC = target: T2, δPKC (Rattus norvegicus, UniProt P09215); experiment: Western blot of PMA-induced PKC translocation from cell soluble to particulate fraction; type: cell-based; conditions: 10 nM PMA for 10 minutes, cardiac myocytes
# T2 construct: Western Blot of cardiac myocyte soluble and particulate fractions; endogenous in cells; host or cells: primary neonatal Sprague-Dawley rat ventricular myocytes
# T2 sequence (P09215 whole entry): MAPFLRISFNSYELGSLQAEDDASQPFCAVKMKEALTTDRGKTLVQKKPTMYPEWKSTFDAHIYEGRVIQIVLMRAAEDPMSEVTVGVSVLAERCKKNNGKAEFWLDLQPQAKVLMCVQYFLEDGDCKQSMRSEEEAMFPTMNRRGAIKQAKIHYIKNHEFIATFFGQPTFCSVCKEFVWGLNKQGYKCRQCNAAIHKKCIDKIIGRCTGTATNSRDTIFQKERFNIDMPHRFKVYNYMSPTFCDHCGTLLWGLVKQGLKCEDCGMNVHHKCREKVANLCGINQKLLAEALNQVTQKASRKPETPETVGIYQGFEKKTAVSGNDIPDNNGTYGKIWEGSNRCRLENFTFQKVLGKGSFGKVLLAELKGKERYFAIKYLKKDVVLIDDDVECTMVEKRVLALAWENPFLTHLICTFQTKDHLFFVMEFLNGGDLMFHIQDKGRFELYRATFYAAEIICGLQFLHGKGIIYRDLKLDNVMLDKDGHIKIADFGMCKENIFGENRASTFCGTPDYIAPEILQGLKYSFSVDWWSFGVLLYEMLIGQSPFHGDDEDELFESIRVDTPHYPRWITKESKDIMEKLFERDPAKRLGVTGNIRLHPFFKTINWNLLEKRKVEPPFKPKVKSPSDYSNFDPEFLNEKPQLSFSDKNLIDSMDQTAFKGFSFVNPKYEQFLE
# Description: Primary cell cultures were prepared as previously described (Disatnik, et al., 1994). Briefly, ventricles from day-old Sprague-Dawley rats were minced, and single isolated myocytes were obtained by alternating cycles of room temperature trypsinization and mechanical dissociation. Cells were washed and preplated in medium 199 with Hanks' salt solution (Gibco/BRL Life Technologies, Gaithersburg, Md.) containing 10% fetal bovine serum (Hyclone Laboratories, Inc., Logan, Utah) to reduce the number of contaminating non-myocardial cells (NMCs). […]
# Western blot analyses of cardiac myocytes grown on 100 mm glass dishes were carried out as previously described (Liu, Y., et al., 1995). […] Soluble and particulate fractions were then subjected to 12% SDS-PAGE and transferred to nitrocellulose sheets. βPKC levels were determined using monoclonal anti-βPKC antibodies (Seikagaku Kogyo, Tokyo, Japan) diluted 1:1000 followed by incubation with rabbit anti-mouse IgG antibodies (Cappel, Durham, N.C.), also at 1:1000 dilution. δPKC and εPKC levels were determined using rabbit polyclonal anti-δPKC and anti-εPKC antibodies (Gibco/BRL), each at 1:300 dilution. Western blots were then incubated with ^125 I-protein A (ICN Biomedicals, Inc., Irvine, Calif.), and PKC immunoreactive bands were detected by autoradiography.
# The ability of PMA to activate the PKC isozymes αPKC, βPKC, δPKC and εPKC was evaluated. […]
# βPKC = experiment: as above; type: cell-based, rat; conditions: 10 nM PMA for 10 minutes, cardiac myocytes
# Description: as §1, §2
# cardiac myocytes [4] = experiment: PMA-induced protection of cardiac myocytes from prolonged hypoxia, cell viability assay; type: cell-based, rat; conditions: 10 nM PMA for 10 minutes, washed, then 9 hours of hypoxia
# Description: as §3, §4
# εPKC [5] = target: T1, εPKC; experiment: Western blot of PMA-induced PKC translocation from cell soluble to particulate fraction; type: cell-based; conditions: 10 nM PMA for 10 minutes, cardiac myocytes
# Description: as §1, §2
molecule,measurement,setting,value
EAVSLKPT [εV1-2],reduction in the particulate signal compared with PMA alone (densitometry),εPKC [1],23%
SLNPEWNET [β pseudo-RACK peptide],viable cells,cardiac myocytes [2],35%
HDAPIGYD [εV1-7],viable cells,cardiac myocytes [2],65%
same,cells with translocation of εPKC,εPKC [3],70%
"CCCCCCCCCCCCCC(=O)O[C@@H]1[C@@H](C)[C@@]2(O)[C@@H](C=C(CO)C[C@]3(O)C(=O)C(C)=C[C@@H]23)[C@@H]2C(C)(C)[C@]12OC(C)=O [PMA, 4β-phorbol 12-myristate 13-acetate]",translocation of δPKC in response to PMA,δPKC,robust
same,translocation of βPKC from the cell soluble to the cell particulate fraction,βPKC,minimal translocation
same,increase in the proportion of surviving myocytes versus control,cardiac myocytes [4],34%
same,translocation of εPKC in response to PMA,εPKC [5],robust

# — patent publication US6165977A, “Isozyme-specific activators of protein kinase C methods and compositions” (Board of Trustees of the Leland Stanford Junior University, priority 1997, dated 2000)
